In assay [1] the test system is experimental muscular dystrophy in hamster. The note with it: cited from earlier work.
Assay [2] relates to cellular calpains in C2C12 myoblasts. The assay is described as follows: Calpain inhibition assay in C2C12 myoblasts. The class given is cell-based. To be noted: 2 h incubation, calcium ionophore Br-A-23187, read-out: Calp I IC50 Myoblast. The method, boiled down:
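Confluent C2C12 myoblasts in fusion medium (DMEM, 5% horse serum) exposed to compound for 2 h at 37 °C, then loaded with 400 μM Suc-Leu-Tyr-AMC for 20 min at room temperature in buffer with 4 mM CaCl2, HEPES pH 7.25. Calpains activated by Br-A-23187 ionophore (20 μM in added buffer); AMC fluorescence read each minute for 60 min at 37 °C to derive IC50.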

The next assay deals with mdx mouse. The assay is described as follows: Longterm treatment of mdx mice (model for Duchenne Muscular Dystrophy). The class given is in vivo. The note with it: 3 week old mice, treatment period of 4 weeks. The method, then:
The mdx mouse is a well established animal model for Duchenne Muscular Dystrophy (Bulfield G., Siller W. G., Wight P. A., Moore K. J., X chromosome-linked muscular dystrophy (mdx) in the mouse, Proc. Natl. Acad. Sci. USA., 1984, 81(4), 1189-1192). Selected compounds were tested in longterm treatments of mdx mice, according to the procedures described below.
Mouse strains: C57BL/10scsn and C57BL/10scsn mdx mouse strains were purchased at The Jackson Laboratory (ME, USA) and bred inhouse. Mouse males were sacrificed at the age of 3 or 7 weeks by CO2 asphyxiation.
Treatment: Compounds were dissolved in 50% PEG, 50% saline solution and applied by i.p. injection.
Histology: Tibialis anterior (TA) and diaphragm (Dia) muscles were collected and mounted on cork supports using gum tragacanth (Sigma-Aldrich, Germany). The samples were snap-frozen in melting isopentane and stored at −80° C. 12 μm thick cryosections of the mid-belly region of muscles were prepared. For staining, sections were air dried and fixed with 4% PFA in PBS for 5 minutes, washed 3 times with PBS and incubated over night at 4° C. in PBS containing 2 μg/ml Alexa Fluor™ 488 conjugated wheat-germ agglutinin (WGA-Alexa, Molecular Probes, Eugen, Oreg., USA) to stain membrane-bound and extracellular epitopes and 1 μg/ml 4′,6-diamidino-2-phenylindole (DAPI; Molecular Probes) to stain nuclei.
Image acquisition and analysis: Fluorescence microscopy images of both labels were acquired using a digital camera (ColorView II, Soft Imaging System, Munster, Germany) coupled to a fluorescence microscope (Vanox S, Olympus, Tokyo, Japan). Combination of these two stainings to a composite image, assembling of several images to a complete image of the entire muscle cross-section and further semi-automated analysis was performed using the image analysis program AnalySIS (Soft Imaging System). Image analysis of 1200-2900 muscle fibers in each section was performed in three steps: 1) determination of the muscle fiber boundaries, 2) determination of the muscle fiber size, and 3) determination of the percentage of muscle fibers containing centralized nuclei. Six different geometrical parameters were tested for the determination of the muscle fiber size: (a) the “minimal feret” (the minimum distance of parallel tangents at opposing borders of the muscle fiber), (b) the “area”, (c) the “minimal inner diameter” (the minimum diameter through the center of the muscle fiber), (d) the “minimal diameter” (the minimum diameter of a muscle fiber for angles in the range 0° through 179° with step width 1°, (e) the “minimal outer diameter” (the minimum diameter through the muscle fiber from outer border to outer border), and (f) the “perimeter”. The variance coefficient of the muscle fiber size is defined as follows: variance coefficient=(standard deviation of the muscle fiber size/mean of the muscle fiber size of the section)*1000. For statistical analysis of different variance coefficient values Mann-Whitney U test was used.
Selected Examples of the present invention were active in the mdx mouse model at 10 mg/kg/day, using 3 week old mice and a treatment period of 4 weeks (N=5−10).

A further assay has as its target T1, 20S Proteasome (Oryctolagus cuniculus, UniProt G1T4Q9).
T1 sequence (G1T4Q9 1-263): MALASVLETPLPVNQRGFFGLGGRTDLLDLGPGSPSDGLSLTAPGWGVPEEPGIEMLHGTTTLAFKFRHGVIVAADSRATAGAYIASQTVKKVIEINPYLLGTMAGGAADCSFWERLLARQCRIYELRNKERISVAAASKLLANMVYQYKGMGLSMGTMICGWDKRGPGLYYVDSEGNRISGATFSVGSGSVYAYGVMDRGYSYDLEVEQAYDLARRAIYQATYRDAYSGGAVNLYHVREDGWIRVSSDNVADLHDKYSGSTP
Description: 20S Proteasome assay. The note with it: substrate Suc-Leu-Leu-Val-Tyr-AMC; read-out: 20S Prot IC50. The class given is biochemical, Rabbit. The method, then:
25 μl of a reaction buffer containing 400 μM of the fluorogenic substrate Suc-Leu-Leu-Val-Tyr-AMC (Bachem) are dispensed per well of a white microtiter plate. Test compounds dissolved in 0.5 μl DMSO are added. To start the reaction; 25 μl of reaction buffer containing 35 ng of enzyme (20S Proteasome, Rabbit, Calbiochem) are added. The increase in fluorescence (excitation at 360 nm; emission at 440 nm) is measured over 30 min at 30° C. at 30″. The IC50's are then determined from the slopes.

In a further assay the target is T2, human μ-calpain (Homo sapiens, UniProt P07384).
T2 construct: purchased Calbiochem
T2 sequence (P07384 1-714): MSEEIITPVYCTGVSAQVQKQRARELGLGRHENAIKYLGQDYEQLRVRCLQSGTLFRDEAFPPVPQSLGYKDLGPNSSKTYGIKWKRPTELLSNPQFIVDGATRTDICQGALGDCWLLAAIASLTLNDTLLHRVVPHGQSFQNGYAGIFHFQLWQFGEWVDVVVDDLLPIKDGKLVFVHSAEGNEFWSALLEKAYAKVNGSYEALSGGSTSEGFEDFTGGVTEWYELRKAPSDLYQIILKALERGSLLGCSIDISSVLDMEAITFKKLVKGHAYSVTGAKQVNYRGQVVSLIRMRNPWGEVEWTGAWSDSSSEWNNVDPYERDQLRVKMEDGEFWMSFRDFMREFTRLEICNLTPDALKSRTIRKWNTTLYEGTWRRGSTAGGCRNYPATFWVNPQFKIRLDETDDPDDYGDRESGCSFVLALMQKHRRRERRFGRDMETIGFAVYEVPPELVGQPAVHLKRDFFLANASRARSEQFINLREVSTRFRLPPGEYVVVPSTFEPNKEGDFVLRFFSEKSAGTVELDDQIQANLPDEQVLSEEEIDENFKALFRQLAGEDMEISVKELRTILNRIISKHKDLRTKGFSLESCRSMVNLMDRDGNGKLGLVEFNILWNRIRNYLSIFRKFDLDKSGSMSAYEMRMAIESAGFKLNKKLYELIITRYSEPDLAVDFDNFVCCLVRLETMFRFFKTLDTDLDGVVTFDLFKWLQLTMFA
T2 sequence (P04632 1-268 partner): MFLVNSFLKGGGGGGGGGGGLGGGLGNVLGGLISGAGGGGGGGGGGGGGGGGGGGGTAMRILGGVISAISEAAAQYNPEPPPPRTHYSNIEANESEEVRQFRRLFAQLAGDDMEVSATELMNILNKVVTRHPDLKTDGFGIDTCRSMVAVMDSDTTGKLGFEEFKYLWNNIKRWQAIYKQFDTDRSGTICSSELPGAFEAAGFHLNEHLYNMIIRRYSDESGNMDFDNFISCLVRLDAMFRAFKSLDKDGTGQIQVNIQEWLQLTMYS
Description: Enzymatic calpain inhibition assay. The assay is classed as biochemical. To be noted: substrate Suc-Leu-Tyr-AMC, read-out: Calp I IC50. The method in brief:
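Human μ-calpain (0.5 μg) with 250 μM Suc-Leu-Tyr-AMC in 100 mM imidazole pH 7.5, 5 mM cysteine, 5 mM CaCl2. AMC fluorescence (ex 360/em 440 nm) followed 30 min at 30 °C; IC50 determined graphically from initial velocities versus inhibitor concentration.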

The test system of assay [3] is Primary fibroblasts from donors with Friedreich Ataxia (FRDA). Description: BSO assay (cell viability under BSO-induced oxidative stress). The assay is classed as cell-based, human. To be noted: Homo sapiens, Fibroblast, 24 h preincubation, 1 mM BSO. The method, boiled down: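 FRDA patient primary fibroblasts were pretreated with compounds for 24 h, then exposed to 1 mM BSO (final) until toxicity appeared in BSO-only controls (typically 16–48 h). Viability was read by calcein AM (1.2 μM)/ethidium homodimer (4 μM) staining, 60 min RT, fluorescence 485/525 nm.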

For `CCOC(=O)[C@H]1O[C@@H]1C(=O)N[C@@H](CC(C)C)C(=O)NCCC(C)C` [Example E-64-d], the life-prolonging effect entry in assay [1] is “life-prolonging effect”.
A word on the IC50: it is the point on the concentration scale where inhibition reaches its midpoint. For “Z-Val-Phe-H [MDL-28170, reference compound]”, the IC50 in assay [2] is 40000 nM; at 20S Proteasome, over 1000 nM. In addition, the “activity in the mdx mouse model” value in the assay on mdx mouse is “did not show statistically significant activity”.
A word on the EC50: it is the midpoint of the concentration-response curve. Low values mean a more potent agent, high ones a less potent agent. As to `CCNC(=O)C(=O)[C@H](Cc1ccc(OC)cc1)NC(=O)[C@H](CC(C)C)NC(=O)CCCCC1CCSS1` (some centres unmarked) [Example 94], the IC50 at human μ-calpain is 15 nM; in assay [2], 1000 nM; on 20S Proteasome, 400 nM. The EC50 in assay [3] is 1500 nM.

The values above are taken from patent US20060258598A1, “Alpha-keto carbonyl calpain inhibitors” (priority 2003, published 2006).
